# Measured values from US20230279020A9, “CARM1 INHIBITORS AND USES THEREOF” (Epizyme, Inc., priority 2013, published 2023).
# Target: Human CARM1 (PRMT4) (Homo sapiens (Human), UniProt Q86X55)
# Assay: CARM1 enzyme assay on peptide substrate (3H-SAM Flashplate)
# Details: Biochemical potencies, classification codes; read-out: Biochem IC50
# Chain of Human CARM1 (PRMT4) (Q86X55 other isoform, or with tags, fused parts or gaps isoform Q86X55-1): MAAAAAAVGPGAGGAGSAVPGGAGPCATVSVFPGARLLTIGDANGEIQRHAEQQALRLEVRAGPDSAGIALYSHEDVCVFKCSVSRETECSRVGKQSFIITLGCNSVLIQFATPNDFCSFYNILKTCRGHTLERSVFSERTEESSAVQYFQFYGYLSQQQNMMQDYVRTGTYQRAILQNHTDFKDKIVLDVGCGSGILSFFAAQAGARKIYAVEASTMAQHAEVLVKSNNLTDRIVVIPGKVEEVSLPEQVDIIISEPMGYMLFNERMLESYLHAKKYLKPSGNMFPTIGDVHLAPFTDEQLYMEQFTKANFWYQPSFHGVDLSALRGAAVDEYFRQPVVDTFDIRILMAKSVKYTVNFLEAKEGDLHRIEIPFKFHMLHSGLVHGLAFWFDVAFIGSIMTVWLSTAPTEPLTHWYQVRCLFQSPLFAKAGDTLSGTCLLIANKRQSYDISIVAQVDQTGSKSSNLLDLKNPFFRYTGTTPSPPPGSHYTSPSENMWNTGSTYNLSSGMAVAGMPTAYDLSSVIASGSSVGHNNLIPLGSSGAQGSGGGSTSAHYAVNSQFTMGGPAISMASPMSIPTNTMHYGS
row,SMILES,IC50 [nM]
1,CNC[C@H](O)COc1ccc(Cl)c(-c2nc(N[C@@H]3CCN(C(=O)OC)[C@@H](C)C3)c(C)c(-c3c(C)noc3C)n2)c1 [Example 66-3],< 100
2,CNCC(O)COc1cccc(-c2nc(N[C@H]3C[C@@](C)(O)C3)cc(-c3c(C)noc3C)n2)c1 (stereo partly shown) [Example 67-1a],< 100
3,CCS(=O)(=O)N1CCC(Nc2nc(-c3cc(OC[C@@H](O)CNC)ccc3Cl)nc(-c3c(C)noc3C)c2C)CC1 [Example 67-3],< 100
4,CNCC(O)COc1cccc(-c2nc(-c3c(C)noc3C)cc(N3CCN(CCF)CC3)n2)c1 (stereo not shown) [Example 68-1a],< 100
5,CNC[C@@H](O)COc1cccc(-c2nc(N[C@@H]3CCN(C4CC4)C[C@@H]3F)c(Cl)c(-c3c(C)noc3C)n2)c1 [Example 68-3],< 100
6,CNCC(O)COc1cccc(-c2nc(-c3c(C)noc3C)cc(N3CC[C@H](S(C)(=O)=O)C3)n2)c1 (stereo partly shown) [Example 69-1a],< 100
7,CNC[C@H](O)COc1ccc(Cl)c(-c2nc(-c3c(C)noc3C)cc(N3CC4(CCN(C5CC5)CC4)C3)n2)c1 [Example 69-3],< 100
8,CNCC(O)COc1cc(Cl)cc(-c2nc(-c3ccn4cnnc4c3)c(C)c(N(C)C3CCOCC3)n2)c1 (stereo not shown) [Example 70-1],< 100
9,CNCC(O)COc1cccc(-c2nc(-c3c(C)noc3C)cc(N3CCN(C(C)=O)C4(CC4)C3)n2)c1 (stereo not shown) [Example 70-1a],< 100
10,CCS(=O)(=O)N1CCC(Nc2nc(-c3cccc(OCC(O)CNC)c3)nc(-c3c(C)nsc3C)c2C)CC1 (stereo not shown) [Example 70-3],< 100
11,CNCC(O)COc1cccc(-c2nc(NCCCN3CCCC3=O)cc(-c3ccc(C(F)(F)F)nc3)n2)c1 (stereo not shown) [Example 71-1],< 100
12,CNCC(O)COc1cccc(-c2nc(-c3c(C)noc3C)c(C)c(N3CC[C@H](N(C)C(C)=O)C3)n2)c1 (stereo partly shown) [Example 71-1a],< 100
13,CCS(=O)(=O)N1CCOC[C@@H]1CNc1nc(-c2cccc(OCC(O)CNC)c2)nc(-c2c(C)nsc2C)c1C (stereo partly shown) [Example 71-3],< 100
14,CNCC(O)COc1cccc(-c2nc(Nc3cnc(OC)nc3)cc(-c3c(C)noc3C)n2)c1 (stereo not shown) [Example 72-1a],< 100
15,CNC[C@H](O)COc1ccc(F)c(-c2nc(NC3CCOCC3)c(C)c(-c3c(C)noc3C)n2)c1 [Example 72-3],< 100
16,CNC[C@H](O)COc1ccc(F)c(-c2nc(NC3CCOC(C)C3)c(C)c(-c3c(C)noc3C)n2)c1 (stereo partly shown) [Example 73-3],< 100
17,CNCC(O)COc1cc(N)cc(-c2nc(NC3CCOCC3)c(C)c(-c3c(C)noc3C)n2)c1 (stereo not shown) [Example 74-1a],< 100
18,CNC[C@H](O)COc1ccc(Cl)c(-c2nc(-c3c(C)noc3C)c(C)c(N3CCN(C)C(C(F)F)C3)n2)c1 (stereo partly shown) [Example 74-3],< 100
19,CNCC(O)COc1cc(OC)cc(-c2nc(NC3CCOCC3)c(C)c(-c3c(C)noc3C)n2)c1 (stereo not shown) [Example 75-1a],< 100
20,CNC[C@H](O)COc1ccc(Cl)c(-c2nc(-c3c(C)noc3C)c(C)c(N3CCC4(CC3)CN(S(C)(=O)=O)C4)n2)c1 [Example 75-3],< 100
21,CNCC(O)COc1cc(O)cc(-c2nc(NC3CCOCC3)c(C)c(-c3c(C)noc3C)n2)c1 (stereo not shown) [Example 76-1a],< 100
22,CNC[C@H](O)COc1ccc(F)c(-c2nc(-c3c(C)noc3C)c(C)c(N3CCC4(CC3)CN(S(C)(=O)=O)C4)n2)c1 [Example 76-3],< 100
23,CCOC(=O)N1CCN(c2nc(-c3cccc(OCC(O)CNC)c3)nc(-c3c(C)noc3C)c2C)CC1 (stereo not shown) [Example 77-1a],< 100
24,CCN1CCC[C@@H]1CNc1nc(-c2cc(OC[C@@H](O)CNC)ccc2Cl)nc(-c2c(C)noc2C)c1C [Example 77-3],< 100
25,CNCC(O)COc1cccc(-c2nc(NCC3CCOCC3)cc(-c3c(C)noc3C)n2)c1 (stereo not shown) [Example 78-1a],< 100

row,SMILES,IC50 [nM]
1,CNCC(O)COc1cccc(-c2nc(-c3c(C)noc3C)cc(N3CCN(CC(F)F)CC3)n2)c1 (stereo not shown) [Example 79-1a],< 100
2,CNCC(O)COc1cccc(-c2nc(-c3c(C)noc3C)cc(N3C[C@@H]4C[C@H]3CN4S(C)(=O)=O)n2)c1 (stereo partly shown) [Example 80-1a],< 100
3,CNCC(O)COc1cccc(-c2nc(-c3c(C)noc3C)cc(N3CCN(C(=O)OC)CC3)n2)c1 (stereo not shown) [Example 81-1a],< 100
4,CNC[C@H](O)COc1ccc(Cl)c(-c2nc(NCCC(C)(C)OC)c(C)c(-c3c(C)noc3C)n2)c1 [Example 82-3],< 100
5,CNC[C@H](O)COc1ccc(F)c(-c2nc(NCCC(C)(C)OC)c(C)c(-c3c(C)noc3C)n2)c1 [Example 83-3],< 100
6,CNCC(O)COc1cccc(-c2nc(-c3c(C)noc3C)c(C)c(N3C[C@@H]4C[C@H]3CN4C)n2)c1 (stereo partly shown) [Example 84-1a],< 100
7,CNC[C@H](O)COc1ccc(F)c(-c2nc(-c3c(C)noc3C)c(C)c(N3CCC4(CC3)CN(C(=O)OC)C4)n2)c1 [Example 84-3],< 100
8,CNCC(O)COc1cccc(-c2nc(NC3(C)CCOCC3)cc(-c3c(C)noc3C)n2)c1 (stereo not shown) [Example 85-1a],< 100
9,CNC[C@H](O)COc1ccc(Cl)c(-c2nc(-c3c(C)noc3C)c(C)c(N3CCC4(CC3)CN(C(=O)OC)C4)n2)c1 [Example 85-3],< 100
10,CNCC(O)COc1cccc(-c2nc(-c3c(C)noc3C)c(C)c(N(C)CC3CCOCC3)n2)c1 (stereo not shown) [Example 86-1a],< 100
11,CNC[C@H](O)COc1ccc(Cl)c(-c2nc(-c3c(C)noc3C)c(C)c(N3Cc4cc(F)cnc4C3)n2)c1 [Example 86-3],< 100
12,CNCC(O)COc1cccc(-c2nc(-c3c(C)noc3C)cc(N(C)CC3CCOCC3)n2)c1 (stereo not shown) [Example 87-1a],< 100
13,CNC[C@H](O)COc1ccc(Cl)c(-c2nc(-c3c(C)noc3C)c(C)c(N3Cc4cc(Cl)cnc4C3)n2)c1 [Example 87-3],< 100
14,CNCC(O)COc1cccc(-c2nc(NCC3CCOCC3)c(C)c(-c3c(C)noc3C)n2)c1 (stereo not shown) [Example 88-1a],< 100
15,CCOC(=O)N1CCC(Nc2nc(-c3cc(OC[C@H](O)CNC)ccc3Cl)nc(-c3c(C)noc3C)c2C)CC1 [Example 88-3],< 100
16,CNCC(O)COc1cccc(-c2nc(-c3c(C)noc3C)c(C)c(N(C)C3CCN(C(=O)OC)CC3)n2)c1 (stereo not shown) [Example 89-1a],< 100
17,CNC[C@H](O)COc1ccc(Cl)c(-c2nc(NC3CCN(C(=O)OC)CC3)c(C)c(-c3c(C)noc3C)n2)c1 [Example 89-3],< 100
18,CNCC(O)COc1cccc(-c2nc(-c3c(C)noc3C)cc(N(C)C3CCN(C(=O)OC)CC3)n2)c1 (stereo not shown) [Example 90-1a],< 100
19,CNC[C@H](O)COc1ccc(Cl)c(-c2nc(-c3c(C)noc3C)c(C)c(N3Cc4ccncc4C3)n2)c1 [Example 90-3],< 100
20,CNCC(O)COc1cccc(-c2nc(-c3c(C)noc3C)cc(N3CCN(C(=O)N(C)C)[C@@H](C)C3)n2)c1 (stereo partly shown) [Example 91-1a],< 100
21,CNC[C@H](O)COc1ccc(F)c(-c2nc(-c3c(C)noc3C)c(C)c(N3Cc4cccnc4C3)n2)c1 [Example 91-3],< 100
22,CNCC(O)COc1cccc(-c2nc(-c3c(C)noc3C)cc(N3CCN(S(C)(=O)=O)[C@@H](C)C3)n2)c1 (stereo partly shown) [Example 92-1a],< 100
23,CNC[C@H](O)COc1ccc(Cl)c(-c2nc(-c3c(C)noc3C)c(C)c(N3Cc4cccnc4C3)n2)c1 [Example 92-3],< 100
24,CNCC(O)COc1cccc(-c2nc(-c3c(C)noc3C)cc(N3CCN(C)[C@@H](C)C3)n2)c1 (stereo partly shown) [Example 93-1a],< 100
